For data set [1], the system named is Vero cells. Put plainly: Cytotoxicity assay (MTT). In kind it is cell-based. Particulars: 24 h at 37 °C, peptide 50 to 3.125 μM, triplicate. Here is the method:
Confluent Vero cells were treated with twofold serial dilutions of each peptide (50, 25, 12.5, 6.25, 3.125 μM). The 96-well plates were incubated at 37 °C/5% CO2 for 24 h; then, cell viability was analyzed by the 3-(4,5-Dimethylthiazol-2-yl)-2,5-Diphenyltetrazolium Bromide (MTT, Sigma-Aldrich, St. Louis, MO, USA) assay based on the reduction of the yellowish MTT to dark blue formazan salts. In brief, at the end of incubation, 100 μL of MTT solution (5 mg/mL) was incubated in each well for 3 h at 37 °C. Supernatant was removed and 100 μL of DMSO 100% (Sigma Aldrich) was added to dissolve formazan. Cytotoxicity was evaluated by spectrophotometric reading at 540 nm. Cell viability was calculated as a percentage of control cells. All experiments were performed in triplicate and means and standard deviations were reported. Nonlinear regression analysis was performed using GraphPad Prism software (version 8.0.1) to extract the CC50.
A preliminary experiment was carried out to evaluate the maximal non-cytotoxic concentration of RV-23 and AR-23. Twofold serial dilutions of each peptide were incubated with Vero cells for 24 h at 37 °C.
Figure 1 Cytotoxicity analysis after RV-23 and AR-23 treatment. Vero cells were treated with each peptide in the range of concentrations from 50 to 3.125 μM. After 24 h, MTT assay was carried out. Cell viability was calculated as a percentage of control cells. […]

For data set [2], the system named is SFNV. The experiment in a line: Antiviral co-treatment assay (CPE, crystal violet). The data set is classed as cell-based, sandfly fever Naples virus. To be noted: Vero cells, peptide and SFNV (200 TCID50/mL) added together 1 h at 37 °C, CPE after 5 days; read-out: inhibitory concentration of 50% (IC50), co-treatment. How it is done: (§1) To analyze whether peptides were endowed with antiviral activity against SFNV, and, specifically, what stage of the infection was affected, different experimental procedures were carried out: (i) co-treatment assay: the cells (5 × 10^5/mL) were incubated with each peptide (at non-cytotoxic concentrations) and infected with the virus (200 TCID50/mL) at the same time (1 h at 37 °C); (ii) virus pre-treatment assay: […] and the mixture was subsequently titrated on cells; (iii) cell pre-treatment assay: cells were previously incubated with the peptide and then infected (1 h at 37 °C); (iv) post-treatment assay: peptide was incubated with the cells after the viral adsorption step (1 h at 37 °C). Following the incubation, the cell monolayer was rinsed three times with medium and than supplemented with DMEM 5% FBS. After 5 days post-infection, cythopathic effect (CPE) was observed and cells were stained with 0.5% crystal violet. All experiments were performed in triplicate. The inhibition rate of the infectivity was evaluated by CPE observed in the wells treated with the peptides to CPE in positive control (cells infected with virus, without peptide).
(§2) The difference between the assays was the timing of incubation of peptides on the cell monolayer. […]

The subject of data set [3] is SFNV. The experiment in a line: Antiviral virus pre-treatment assay (CPE, crystal violet). In kind it is cell-based, sandfly fever Naples virus. To be noted: peptide incubated with SFNV 1 h at 37 °C, mixture titrated on Vero cells, CPE after 5 days; read-out: inhibitory concentration of 50% (IC50), virus pre-treatment. Here is the method: as §1, §2
Data set [4] has as its system SFNV. Put plainly: Heparin assay: neutralization of SFNV infection by heparin. The data set is classed as cell-based, sandfly fever Naples virus. Particulars: Vero cells, heparin 266.7 to 0.26 μM with SFNV (200 TCID50/mL) 1 h at 37 °C, CPE after 5 days. How it is done:
To analyze if heparin could neutralize the virus binding to cells, Vero were infected with SFNV (200 TCID50/mL) and simultaneously treated with serial heparin dilutions (1.56, […], 25, 100, 400, and 1600 μg/mL) for 1 h at 37 °C. Then, the cell monolayer was washed with medium and incubated in the presence of DMEM 5% FBS for 5 days until the CPE appeared. To analyze the simultaneous effect of heparin and each peptide against SFNV infection, a standard concentration of RV-23 or AR-23 (10 μM) was incubated together with the same above-mentioned heparin concentrations. At the same time, the virus (200 TCID50/mL) was added to cell monolayer and subsequently incubated for 1 h at 37 °C. The infection was observed after 5 days infection via CPE.
Phleboviruses use GAGs for the viral entry, including heparin and heparan sulphate (HS). […] Different concentrations of heparin were incubated with the virus during the adsorption phase, and after 5 days of infection, the CPE was analyzed (Figure 3A).
Figure 3 Heparin assay. […] Serial heparin concentrations were incubated with the virus and each peptide […] on Vero cells, and after 5 days of infection, CPE was analyzed by crystal violet staining. […]

Peptide text beside a SMILES is read from it.

On to `CC[C@H](C)[C@H](NC(=O)[C@H](C)N)C(=O)NCC(=O)N[C@@H](CO)C(=O)N[C@H](C(=O)N[C@@H](CC(C)C)C(=O)NCC(=O)N[C@@H](C)C(=O)N[C@@H](CC(C)C)C(=O)N[C@@H](C)C(=O)N[C@@H](CCCCN)C(=O)NCC(=O)N[C@@H](CC(C)C)C(=O)N1CCC[C@H]1C(=O)N[C@H](C(=O)N[C@@H](CC(C)C)C(=O)N[C@H](C(=O)N[C@@H](CO)C(=O)N[C@@H](Cc1c[nH]c2ccccc12)C(=O)N[C@H](C(=O)N[C@@H](CCCCN)C(=O)N[C@@H](CC(N)=O)C(=O)N[C@@H](CCCNC(=N)N)C(N)=O)[C@@H](C)CC)[C@@H](C)CC)[C@@H](C)O)[C@@H](C)CC` [AR-23] (H-AIGSILGALAKGLPTLISWIKNR-NH2), for which the “Cytotoxicity (cell viability) in words” value in data set [1] is recorded as “consistently affected cell viability at 50 μM”. Also, the IC50 in data set [2] amounted to 12.5 µM; in data set [3], 10 µM.

As for `CC[C@H](C)[C@H](NC(=O)[C@@H](N)CCCNC(=N)N)C(=O)NCC(=O)N[C@H](C(=O)N[C@@H](CC(C)C)C(=O)N[C@@H](CC(C)C)C(=O)N[C@@H](C)C(=O)N[C@@H](CCCNC(=N)N)C(=O)N[C@@H](CC(C)C)C(=O)N1CCC[C@H]1C(=O)N[C@@H](CCCCN)C(=O)N[C@@H](CC(C)C)C(=O)N[C@@H](Cc1ccccc1)C(=O)N[C@@H](CO)C(=O)N[C@@H](CC(C)C)C(=O)N[C@@H](Cc1ccccc1)C(=O)N[C@@H](CCCCN)C(=O)N[C@@H](CC(C)C)C(=O)N[C@@H](CCSC)C(=O)NCC(=O)N[C@@H](CCCCN)C(=O)N[C@@H](CCCCN)C(=O)N[C@H](C(N)=O)C(C)C)C(C)C` [RV-23] (H-RIGVLLARLPKLFSLFKLMGKKV-NH2), in data set [1], the “Cytotoxicity (cell viability) in words” value was “not cytotoxic up to the highest dose”. Besides, the figures for the IC50 in data set [2] and in data set [3] were 10 µM and 6.25 µM, respectively.

For heparin, in data set [4], the “Inhibition of SFNV infection by heparin” value is “strongly blocked the viral infection up to 4.2 μM”.

The values above are taken from publication PMC10609114, “Melittin-Related Peptides Interfere with Sandfly Fever Naples Virus Infection by Interacting with Heparan Sulphate” (Microorganisms, 2023).
